Laboratory results published in patent US12655116B2, “Substituted isophthalic acid diamides” (Bayer Aktiengesellschaft, priority 2020, dated 2026).

Legend:
[1] = system: LOLRI; test: Post-emergence herbicidal action against LOLRI; format: in vivo, Lolium rigidum; settings: Lolium rigidum, 504 h
In short: (§1)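 A WP or EC formulation diluted in water with 0.2% wetting agent was sprayed at 600 to 800 l/ha onto one-leaf-stage plants grown in sandy loam. About 3 weeks later, action was rated visually in percent, 100% being dead plants.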

[2] = system: HORMU; test: Pre-emergence herbicidal action against HORMU; format: in vivo, Hordeum murinum; settings: Hordeum murinum, 504 h, pre-emergence
In short: (§2)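 Greenhouse pots of sandy loam held seeds covered with soil, onto which the compound was applied before emergence. An aqueous suspension or emulsion of WP or EC was used at 600 to 800 l/ha with 0.2% wetting agent. Percent damage was judged visually at 3 weeks.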

[3] = system: STEME; test: Pre-emergence herbicidal action against STEME; format: in vivo, Stellaria media; settings: Stellaria media, 504 h
In short: as §2

[4] = system: LOLRI; test: Pre-emergence herbicidal action against LOLRI; format: in vivo, Lolium rigidum; settings: Lolium rigidum, 504 h, 320 g/ha
In short: as §2

[5] = system: PHBPU; test: Post-emergence herbicidal action against PHBPU; format: in vivo, Pharbitis purpurea; settings: Ipomoea purpurea, 504 h
In short: as §1

[6] = system: STEME; test: Post-emergence herbicidal action against STEME; format: in vivo, Stellaria media; settings: Stellaria media, 504 h
In short: as §1

[7] = system: ECHCG; test: Post-emergence herbicidal action against ECHCG; format: in vivo, Echinochloa crus-galli; settings: Echinochloa crus-galli, 504 h
In short: as §1

[8] = system: AMARE; test: Pre-emergence herbicidal action against AMARE; format: in vivo, Amaranthus retroflexus; settings: Amaranthus retroflexus, 504 h, 100% = plants have died, 0% = like control plants
In short: as §2

[9] = system: ALOMY; test: Post-emergence herbicidal action against ALOMY; format: in vivo, Alopecurus myosuroides; settings: Alopecurus myosuroides, 504 h, visual assessment about 3 weeks after treatment vs untreated controls
In short: as §1

[10] = system: SETVI; test: Post-emergence herbicidal action against SETVI; format: in vivo, Setaria viridis; settings: Setaria viridis, 504 h
In short: as §1

[11] = system: AVEFA; test: Pre-emergence herbicidal action against AVEFA; format: in vivo, Avena fatua; settings: Avena fatua, 504 h, pre-emergence
In short: as §2

[12] = system: SETVI; test: Pre-emergence herbicidal action against SETVI; format: in vivo, Setaria viridis; settings: Setaria viridis, 504 h
In short: as §2

[13] = system: ALOMY; test: Pre-emergence herbicidal action against ALOMY; format: in vivo, Alopecurus myosuroides; settings: Alopecurus myosuroides, 504 h, pre-emergence
In short: as §2

[14] = system: VIOTR; test: Post-emergence herbicidal action against VIOTR; format: in vivo, Viola tricolor; settings: Viola tricolor, 504 h
In short: as §1

[15] = system: VERPE; test: Pre-emergence herbicidal action against VERPE; format: in vivo, Veronica persica; settings: Veronica persica, 504 h, dosage 320 g/ha
In short: as §2

[16] = system: AVEFA; test: Post-emergence herbicidal action against AVEFA; format: in vivo, Avena fatua; settings: Avena fatua, 504 h, visual assessment about 3 weeks after treatment, 100% = plants have died, 0% = like control plants
In short: as §1

[17] = system: MATIN; test: Post-emergence herbicidal action against MATIN; format: in vivo, Matricaria inodora; settings: Tripleurospermum inodorum, 504 h
In short: as §1

[18] = system: ECHCG; test: Pre-emergence herbicidal action against ECHCG; format: in vivo, Echinochloa crus-galli; settings: Echinochloa crus-galli, 504 h
In short: as §2

[19] = system: ABUTH; test: Pre-emergence herbicidal action against ABUTH; format: in vivo, Abutilon theophrasti; settings: Abutilon theophrasti, 504 h
In short: as §2

[20] = system: HORMU; test: Post-emergence herbicidal action against HORMU; format: in vivo, Hordeum murinum; settings: Hordeum murinum, 504 h
In short: as §1

[21] = system: MATIN; test: Pre-emergence herbicidal action against MATIN; format: in vivo, Matricaria inodora; settings: Tripleurospermum inodorum, 504 h
In short: as §2

[22] = system: POLCO; test: Post-emergence herbicidal action against POLCO; format: in vivo, Polygonum convolvulus; settings: Fallopia convolvulus, 504 h, dosage 80 g/ha
In short: as §1

[23] = system: AMARE; test: Post-emergence herbicidal action against AMARE; format: in vivo, Amaranthus retroflexus; settings: Amaranthus retroflexus, 504 h, visual assessment about 3 weeks after treatment, 100% = plants have died, 0% = like control plants
In short: as §1

[24] = 20 g/ha, scored visually after 3 weeks, 100% = plants have died, 0% = like control plants
[25] = 320 g/ha, scored visually after 3 weeks, 100% = plants have died, 0% = like control plants
[26] = 80 g/ha, scored visually after 3 weeks vs untreated controls (100% = plants have died, 0% = like control plants)

SMILES: CCn1nnnc1NC(=O)c1ccc(C(F)(F)F)c(C(=O)NC)c1Cl [Example 2-129]
- pest or weed control at 20 g/ha ([1]; dosage 20 g/ha): 100%
- pest or weed control at 80 g/ha ([1]; dosage 80 g/ha): 100%
- pest or weed control at 80 g/ha ([2]; 80 g/ha): 90%
- pest or weed control at 320 g/ha ([2]; 320 g/ha): 100%
- pest or weed control at 20 g/ha ([3]; dosage 20 g/ha): 80%
- pest or weed control at 80 g/ha ([3]; dosage 80 g/ha): 80%
- pest or weed control at 320 g/ha ([3]; dosage 320 g/ha): 100%
- pest or weed control at 320 g/ha [4]: 100%
- pest or weed control at 20 g/ha ([5]; dosage 20 g/ha): 100%
- pest or weed control at 80 g/ha ([5]; dosage 80 g/ha): 100%
- pest or weed control at 20 g/ha ([6]; 20 g/ha): 100%
- pest or weed control at 80 g/ha ([6]; 80 g/ha): 100%
- pest or weed control at 5 g/ha ([6]; dosage 5 g/ha): 100%
- pest or weed control at 20 g/ha ([7]; dosage 20 g/ha): 100%
- pest or weed control at 80 g/ha ([7]; dosage 80 g/ha): 100%
- pest or weed control at 20 g/ha ([8]; 20 g/ha, scored visually after 3 weeks vs untreated controls): 100%
- pest or weed control at 80 g/ha ([8]; 80 g/ha, scored visually after 3 weeks vs untreated controls): 100%
- pest or weed control at 320 g/ha ([8]; 320 g/ha, scored visually after 3 weeks): 100%
- pest or weed control at 5 g/ha ([9]; dosage 5 g/ha): 100%
- pest or weed control at 20 g/ha ([9]; dosage 20 g/ha): 100%
- pest or weed control at 80 g/ha ([9]; dosage 80 g/ha): 100%
- pest or weed control at 5 g/ha ([10]; dosage 5 g/ha): 100%
- pest or weed control at 20 g/ha ([10]; dosage 20 g/ha): 100%
- pest or weed control at 80 g/ha ([10]; dosage 80 g/ha): 100%
- pest or weed control at 80 g/ha ([11]; 80 g/ha): 100%
- pest or weed control at 20 g/ha [11, 24]: 100%
- pest or weed control at 320 g/ha [11, 25]: 100%
- pest or weed control at 20 g/ha ([12]; dosage 20 g/ha): 100%
- pest or weed control at 80 g/ha ([12]; dosage 80 g/ha): 100%
- pest or weed control at 320 g/ha ([12]; dosage 320 g/ha): 100%
- pest or weed control at 80 g/ha [13, 26]: 100%
- pest or weed control at 20 g/ha [13, 24]: 90%
- pest or weed control at 320 g/ha [13, 25]: 100%
- pest or weed control at 5 g/ha ([14]; 5 g/ha): 80%
- pest or weed control at 20 g/ha ([14]; 20 g/ha): 100%
- pest or weed control at 80 g/ha ([14]; 80 g/ha): 100%
- pest or weed control at 320 g/ha [15]: 100%
- pest or weed control at 5 g/ha ([16]; 5 g/ha): 100%
- pest or weed control at 20 g/ha ([16]; 20 g/ha): 100%
- pest or weed control at 80 g/ha ([16]; 80 g/ha): 100%
- pest or weed control at 5 g/ha ([17]; dosage 5 g/ha): 80%
- pest or weed control at 20 g/ha ([17]; dosage 20 g/ha): 100%
- pest or weed control at 80 g/ha ([17]; dosage 80 g/ha): 100%
- pest or weed control at 80 g/ha ([18]; 80 g/ha): 100%
- pest or weed control at 320 g/ha ([18]; 320 g/ha): 100%
- pest or weed control at 80 g/ha [19, 26]: 100%
- pest or weed control at 320 g/ha ([19]; Dosage: 320 g/ha, scored visually after 3 weeks, 100% = plants have died, 0% = like control plants): 100%
- pest or weed control at 20 g/ha ([19]; dosage 20 g/ha, scored visually after 3 weeks vs untreated controls, 100% = plants have died, 0% = like control plants, read-out: Pre-emergence action against ABUTH (herbicidal activity in percent)): 100%
- pest or weed control at 5 g/ha ([20]; dosage 5 g/ha): 80%
- pest or weed control at 20 g/ha ([20]; dosage 20 g/ha): 90%
- pest or weed control at 80 g/ha ([20]; dosage 80 g/ha): 100%
- pest or weed control at 20 g/ha ([21]; dosage 20 g/ha): 100%
- pest or weed control at 80 g/ha ([21]; dosage 80 g/ha): 100%
- pest or weed control at 320 g/ha ([21]; dosage 320 g/ha): 100%
- pest or weed control at 80 g/ha [22]: 100%
- pest or weed control at 20 g/ha ([23]; 20 g/ha): 100%
- pest or weed control at 80 g/ha ([23]; 80 g/ha): 100%
